The results in this text go back to patent US8030321B2, “Benzofuro- and benzothienopyrimidine modulators of the histamine H4 receptor” (Janssen Pharmaceutica, NV, priority 2006, dated 2011).

Molecules are shown by their SMILES. Counter-ions that a name gives are not always drawn.

T1 sequence (Q9H3N8 whole entry): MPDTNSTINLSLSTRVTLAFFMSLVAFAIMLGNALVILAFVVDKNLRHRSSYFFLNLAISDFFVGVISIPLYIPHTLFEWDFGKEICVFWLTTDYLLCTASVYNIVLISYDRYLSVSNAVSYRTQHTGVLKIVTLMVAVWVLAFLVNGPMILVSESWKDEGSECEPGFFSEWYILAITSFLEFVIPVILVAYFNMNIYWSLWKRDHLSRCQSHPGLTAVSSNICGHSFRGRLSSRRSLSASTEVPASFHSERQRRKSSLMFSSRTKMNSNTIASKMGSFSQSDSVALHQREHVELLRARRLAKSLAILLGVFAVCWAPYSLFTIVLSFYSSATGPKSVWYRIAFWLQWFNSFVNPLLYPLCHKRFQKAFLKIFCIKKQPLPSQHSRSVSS

One assay concerns the target T1, human histamine H4 receptor (Homo sapiens, UniProt Q9H3N8).
T1 construct: expressed in transfected cells; host or cells: SK-N-MC cells or COS7 cells, transiently transfected; cell membranes used
The assay can be described thus: Binding Assay on Recombinant Human Histamine H4 Receptor.
Settings: not given
The essentials: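 Membranes from SK-N-MC or COS7 cells transiently transfected with human H4 receptor were incubated with ³H-histamine (5-70 nM); nonspecific binding defined with 10,000 nM histamine. Bound radioactivity collected by GF/C filtration and scintillation counting; test compounds assessed by displacement of ³H-ligand binding across concentrations.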
As to `Nc1nc(N2C[C@@H]3CCCN[C@@H]3C2)c2oc3ccc(Cl)cc3c2n1` [Example 83, 8-Chloro-4-(octahydro-pyrrolo[3,4-b]pyridin-6-yl)-benzo[4,5]furo[3,2-d]pyrimidin-2-ylamine citrate salt], the Ki (in general, the equilibrium dissociation constant of an inhibitor or competing ligand from its target) was 4.7 nM.

Consider `Nc1nc(N2CC3CCC(C2)N3)c2oc3ccc(Cl)cc3c2n1` [Example 97, 8-Chloro-4-(3,8-diaza-bicyclo[3.2.1]oct-3-yl)-benzo[4,5]furo[3,2-d]pyrimidin-2-ylamine trifluoroacetic acid salt], for which the Ki amounted to 42 nM.

Consider `Nc1nc(N2CCN3CCCC3C2)c2oc3ccc(Cl)cc3c2n1` (stereo not shown) [Example 69, 8-Chloro-4-(hexahydro-pyrrolo[1,2-a]pyrazin-2-yl)-benzo[4,5]furo[3,2-d]pyrimidin-2-ylamine trifluoroacetic acid salt], for which the Ki amounted to 15 nM.

Consider `CN1C[C@@H]2C[C@H]1CN2c1nc(N)nc2c1oc1ccc(Cl)cc12` [Example 106, (S,S)-8-Chloro-4-(5-methyl-2,5-diaza-bicyclo[2.2.1]hept-2-yl)-benzo[4,5]furo[3,2-d]pyrimidin-2-ylamine trifluoroacetic acid salt], for which the inhibition constant (Ki) was 11 nM.

On to `Nc1nc(N2CC3CCCNC3C2)c2sc3cc(Br)ccc3c2n1` (stereo not shown) [Example 46, 7-Bromo-4-(octahydro-pyrrolo[3,4-b]pyridin-6-yl)-benzo[4,5]thieno[3,2-d]pyrimidin-2-ylamine trifluoroacetic acid salt], for which the Ki was 28 nM.

In the case of `Nc1nc(N2C[C@@H]3C[C@H]2CN3)c2sc3ccc(Cl)cc3c2n1` [Example 68, (S,S)-8-Chloro-4-(2,5-diaza-bicyclo[2.2.1]hept-2-yl)-benzo[4,5]thieno[3,2-d]pyrimidin-2-ylamine trifluoroacetic acid salt], the Ki amounted to 840 nM.

As to `Nc1nc(N2CC3CCNC3C2)c2oc3ccc(Cl)cc3c2n1` (stereo not shown) [Example 80, 8-Chloro-4-(hexahydro-pyrrolo[3,4-b]pyrrol-5-yl)-benzo[4,5]furo[3,2-d]pyrimidin-2-ylamine trifluoroacetic acid salt], the inhibitory constant (Ki) came to 3.6 nM.

The assay is the same for the next values; noted with them: competition binding with 3H-histamine (5 nM), membranes of SK-N-MC or COS7 cells expressing human H4 receptor; Cheng-Prusoff, KD 5 nM; average of results obtained; read-out: Ki.
As to `COc1ccc2c(c1)sc1c(N3CCN(C)CC3)nc(N)nc12` [Example 159, 7-Methoxy-4-(4-methyl-piperazin-1-yl)-benzo[4,5]thieno[3,2-d]pyrimidin-2-ylamine trifluoroacetic acid salt], the inhibition constant Ki was 180 nM.

`CN[C@@H]1CCN(c2nc(N)nc3c2oc2ncccc23)C1` [Example 42, (R)-8-(3-Methylamino-pyrrolidin-1-yl)-9-oxa-1,5,7-triaza-fluoren-6-ylamine]: the Ki came to 71 nM.

Regarding `Nc1nc(N2C[C@@H]3C[C@H]2CN3)c2oc3cccc(Cl)c3c2n1` [Example 155, (S,S)-9-Chloro-4-(2,5-diaza-bicyclo[2.2.1]hept-2-yl)-benzo[4,5]furo[3,2-d]pyrimidin-2-ylamine trifluoroacetic acid salt], the inhibition constant Ki stood at 460 nM.

On to `CC(C)CNc1nc(N2CCN(C)CC2)c2oc3ccc(Cl)cc3c2n1` [Example 120, [8-Chloro-4-(4-methyl-piperazin-1-yl)-benzo[4,5]furo[3,2-d]pyrimidin-2-yl]-isobutyl-amine], for which the Ki turned out to be 3330 nM.

Turning to `CN1CCN(c2nc(N(C)C)nc3c2oc2ccc(Cl)cc23)CC1` [Example 163, [8-Chloro-4-(4-methyl-piperazin-1-yl)-benzo[4,5]furo[3,2-d]pyrimidin-2-yl]-dimethyl-amine], the Ki came to 718 nM.

Regarding `Nc1nc(N2C[C@@H]3C[C@H]2CN3)c2sc3cc(C(F)(F)F)ccc3c2n1` [Example 53, (S,S)-4-(2,5-Diaza-bicyclo[2.2.1]hept-2-yl)-7-trifluoromethyl-benzo[4,5]thieno[3,2-d]pyrimidin-2-ylamine trifluoroacetic acid salt], the inhibitory constant (Ki) is over 10000 nM.

With `N[C@H]1CCCN(c2nc(NCCO)nc3c2oc2ccc(Cl)cc23)C1` [Example 161, (S)-2-[4-(3-Amino-piperidin-1-yl)-8-chloro-benzo[4,5]furo[3,2-d]pyrimidin-2-ylamino]-ethanol], the Ki is over 10000 nM.

Regarding `CN1CCN(c2nc(N)nc3c2sc2ccc(F)cc23)CC1` [Example 70, 8-Fluoro-4-(4-methyl-piperazin-1-yl)-benzo[4,5]thieno[3,2-d]pyrimidin-2-ylamine trifluoroacetic acid salt], the inhibitory constant (Ki) came to 18.9 nM.

On to `C=CCNc1nc(N2CCN(C)CC2)c2oc3ccc(Cl)cc3c2n1` [Example 121, Allyl-[8-chloro-4-(4-methyl-piperazin-1-yl)-benzo[4,5]furo[3,2-d]pyrimidin-2-yl]-amine], for which the inhibition constant (Ki) turned out to be 220 nM.

With `CSCCNc1nc(N2CCN(C)CC2)c2oc3ccc(Cl)cc3c2n1` [Example 123, [8-Chloro-4-(4-methyl-piperazin-1-yl)-benzo[4,5]furo[3,2-d]pyrimidin-2-yl]-(2-methylsulfanyl-ethyl)-amine], the inhibition constant (Ki) came out at 520 nM.

As for `CN[C@@H]1CCN(c2nc(N)nc3c2oc2cccc(C(F)(F)F)c23)C1` [Example 84, (R)-4-(3-Methylamino-pyrrolidin-1-yl)-9-trifluoromethyl-benzo[4,5]furo[3,2-d]pyrimidin-2-ylamine citrate salt], the Ki was over 10000 nM.

In the case of `OCCNc1nc(N2CCNCC2)c2oc3ccc(Cl)cc3c2n1` [Example 160, 2-(8-Chloro-4-piperazin-1-yl-benzo[4,5]furo[3,2-d]pyrimidin-2-ylamino)-ethanol], the inhibition constant Ki is over 10000 nM.

Take `NC[C@H]1CCN(c2nc(N)nc3c2oc2ccc(Cl)cc23)C1` [Example 30, (R)-4-(3-Aminomethyl-pyrrolidin-1-yl)-8-chloro-benzo[4,5]furo[3,2-d]pyrimidin-2-ylamine trifluoroacetic acid salt]: the Ki came out at 140 nM.

Consider `CN1CCC(N(C)c2nc(N)nc3c2oc2ccc(F)cc23)C1` (stereo not shown) [Example 41, 8-Fluoro-N^4-methyl-N^4-(1-methyl-pyrrolidin-3-yl)-benzo[4,5]furo[3,2-d]pyrimidine-2,4-diamine trifluoroacetic acid salt], for which the inhibition constant (Ki) turned out to be 110 nM.

Turning to `Nc1nc(N2CCNCC2)c2oc3cccc(Cl)c3c2n1` [Example 153, 9-Chloro-4-piperazin-1-yl-benzo[4,5]furo[3,2-d]pyrimidin-2-ylamine trifluoroacetic acid salt], the Ki is 1030 nM.

`CN[C@@H]1CCN(c2nc(N)nc3c2oc2ccccc23)C1` [Example 6, (R)-4-(3-Methylamino-pyrrolidin-1-yl)-benzo[4,5]furo[3,2-d]pyrimidin-2-ylamine citric acid salt]: the Ki came out at 3.4 nM.

Turning to `CN1CCN(c2nc(N)nc3c2oc2cccc(C(F)(F)F)c23)CC1` [Example 91, 4-(4-Methyl-piperazin-1-yl)-9-trifluoromethyl-benzo[4,5]furo[3,2-d]pyrimidin-2-ylamine citrate salt], the inhibitory constant (Ki) was 50 nM.

As to `Nc1nc(N2C[C@@H]3C[C@H]2CN3)c2oc3ccc(C(F)(F)F)cc3c2n1` [Example 143, (S,S)-4-(2,5-Diaza-bicyclo[2.2.1]hept-2-yl)-8-trifluoromethyl-benzo[4,5]furo[3,2-d]pyrimidin-2-ylamine citrate salt], the inhibition constant (Ki) amounted to 270 nM.

In the case of `COc1cccc2oc3c(N4CCN(C)CC4)nc(N)nc3c12` [Example 88, 9-Methoxy-4-(4-methyl-piperazin-1-yl)-benzo[4,5]furo[3,2-d]pyrimidin-2-ylamine trifluoroacetic acid salt], the Ki was determined as 30 nM.

For `Nc1nc(N2CCC[C@H](N)C2)c2oc3cccc(C(F)(F)F)c3c2n1` [Example 92, (S)-4-(3-Amino-piperidin-1-yl)-9-trifluoromethyl-benzo[4,5]furo[3,2-d]pyrimidin-2-ylamine citrate salt], the Ki is over 10000 nM.

Turning to `Nc1nc(N2C[C@@H]3C[C@H]2CN3)c2oc3c(Cl)cc(Cl)cc3c2n1` [Example 38, (S,S)-6,8-Dichloro-4-(2,5-diaza-bicyclo[2.2.1]hept-2-yl)-benzo[4,5]furo[3,2-d]pyrimidin-2-ylamine trifluoroacetic acid salt], the Ki is over 10000 nM.

Turning to `CN1CCN(c2nc(N)nc3c2oc2cccc(F)c23)CC1` [Example 135, 9-Fluoro-4-(4-methyl-piperazin-1-yl)-benzo[4,5]furo[3,2-d]pyrimidin-2-ylamine trifluoroacetic acid salt], the inhibitory constant (Ki) was 21 nM.

`CN[C@@H]1CCN(c2nc(N)nc3c2sc2cc(C(F)(F)F)ccc23)C1` [Example 52, (R)-4-(3-Methylamino-pyrrolidin-1-yl)-7-trifluoromethyl-benzo[4,5]thieno[3,2-d]pyrimidin-2-ylamine trifluoroacetic acid salt]: the inhibition constant (Ki) stood at 120 nM.

In the case of `CN[C@@H]1CCN(c2nc(N)nc3c2oc2ccc(Cl)c(Cl)c23)C1` [Example 99, (R)-8,9-Dichloro-4-(3-methylamino-pyrrolidin-1-yl)-benzo[4,5]furo[3,2-d]pyrimidin-2-ylamine trifluoroacetic acid salt], the inhibition constant (Ki) is 10 nM.

For `Nc1nc(N2CC(N)C2)c2oc3ccc(Cl)cc3c2n1` [Example 129, 4-(3-Amino-azetidin-1-yl)-8-chloro-benzo[4,5]furo[3,2-d]pyrimidin-2-ylamine trifluoroacetic acid salt], the inhibition constant Ki was 19 nM.

For `C[C@@H]1CN(c2nc(N)nc3c2oc2ccc(Cl)cc23)[C@@H](C)CN1` [Example 130, (2S,5R)-8-Chloro-4-(2,5-dimethyl-piperazin-1-yl)-benzo[4,5]furo[3,2-d]pyrimidin-2-ylamine trifluoroacetic acid salt], the Ki stood at 140 nM.

For the molecule `CCN[C@@H]1CCN(c2nc(N)nc3c2oc2ccc(Cl)cc23)C1` [Example 73, (R)-8-Chloro-4-(3-ethylamino-pyrrolidin-1-yl)-benzo[4,5]furo[3,2-d]pyrimidin-2-ylamine trifluoroacetic acid salt], the inhibition constant Ki is 75 nM.
